In patent US7947830B2, “Substituted propenyl piperazine derivatives as novel inhibitors of histone deacetylase” (Janssen Pharmaceutica N.V., priority 2004, dated 2011):
Values after ≈ are worked out from the molar mass of the structure shown.

Experiments:
[1] = tested on: A2780 ovarian carcinoma cells; experiment: Antiproliferative activity on A2780 cells (MTT); assay type: cell-based, human; conditions: four days of incubation; for IC50: Homo sapiens, A2780, 96 h, read-out: Cellular activity pIC50 C.2. (converted)
Method: Cellular activity of the compounds of formula (I) was determined on A2780 tumour cells using a […] assay for cell toxicity or survival (Mosmann Tim, Journal of Immunological Methods 65: 55-63, 1983)(see example C.2).
All compounds tested were dissolved in DMSO and further dilutions were made in culture medium. Final DMSO concentrations never exceeded 0.1% (v/v) in cell proliferation assays. Controls contained A2780 cells and DMSO without compound and blanks contained DMSO but no cells. MTT was dissolved at 5 mg/ml in PBS. A glycine buffer comprised of 0.1 M glycine and 0.1 M NaCl buffered to pH 10.5 with NaOH (1 N) was prepared (all reagents were from Merck).
The human A2780 ovarian carcinoma cells (a kind gift from Dr. T. C. Hamilton [Fox Chase Cancer Centre, Pennsylvania, USA]) were cultured in RPMI 1640 medium supplemented with 2 mM L-glutamine, 50 μg/ml gentamicin and 10% fetal calf serum.
Cells were routinely kept as monolayer cultures at 37° C. in a humidified 5% CO2 atmosphere. Cells were passaged once a week using a trypsin/EDTA solution at a split ratio of 1:40. All media and supplements were obtained from Life Technologies. Cells were free of mycoplasma contamination as determined using the Gen-Probe Mycoplasma Tissue Culture kit (supplier: BioMérieux).
Cells were seeded in NUNC™ 96-well culture plates (Supplier: Life Technologies) and allowed to adhere to the plastic overnight. Densities used for plating were 1500 cells per well in a total volume of 200 μl medium. After cell adhesion to the plates, medium was changed and drugs and/or solvents were added to a final volume of 200 μl. Following four days of incubation, medium was replaced by 200 μl fresh medium and cell density and viability was assessed using an MTT-based assay. To each well, 25 μl […] solution was added and the cells were further incubated for 2 hours at 37° C. The medium was then carefully aspirated and the blue MTT-formazan product was solubilized by addition of 25 μl glycine buffer followed by 100 μl of DMSO. […] Within an experiment, the results for each experimental condition are the mean of 3 replicate wells. For initial screening purposes, compounds were tested at a single fixed concentration of 10^−6 M. For active compounds, the experiments were repeated to establish full concentration-response curves. For each experiment, controls (containing no drug) and a blank incubation (containing no cells or drugs) were run in parallel. The blank value was subtracted from all control and sample values. For each sample, the mean value for cell growth (in absorbance units) was expressed as a percentage of the mean value for cell growth of the control. […] Herein the effects of test compounds are expressed as pIC50 (the negative log value of the IC50-value)(see Table F-3).

[2] = target: histone deacetylase (HeLa nuclear extracts); experiment: In vitro assay for inhibition of histone deacetylase (HDAC Fluorescent Activity Assay, Fluor de Lys); assay type: biochemical; conditions: Fluor de Lys substrate
Description: The in vitro assay for inhibition of histone deacetylase (see example C.1) measures the inhibition of HDAC enzymatic activity obtained with the compounds of formula (I).
The HDAC Fluorescent Activity Assay/Drug Discovery Kit of Biomol (cat.No: AK-500-0001) was used. The HDAC Fluorescent Activity Assay is based on the Fluor de Lys (Fluorogenic […] deAcetylase Lysyl) substrate and developer combination. The Fluor de Lys substrate, comprises an acetylated lysine side chain. Deacetylation of the substrate sensitizes the substrate so that, in the second step, treatment with the Fluor de Lys developer produces a fluorophore.
After 30 min, 1 volume of the developer was added. […] For each experiment, controls (containing HeLa nuclear extract and buffer), a blank incubation (containing buffer but no HeLa nuclear extract) and samples (containing compound dissolved in DMSO and further diluted in buffer and HeLa nuclear extract) were run in parallel. […] All sample were tested 4 times. In each test the blank value was substracted from both the control and the sample values. The control sample represented 100% of substrate deactylation. For each sample the fluorescence was expressed as a percentage of the mean value of the controls. […] Herein the effects of test compounds are expressed as pIC50 (the negative log value of the IC50-value) (see Table F-3).

[3] = Solubility at different pH's, chemiluminescent nitrogen detector (C.3.b); assay type: physicochemical; conditions: for solubility: pH 2.3, aqueous buffer, read-out: Solubility C.3.b. pH = 2.3 mg/ml
Description: In a second method the solubility of a compound at different pH's can be measured with the use of a chemiluminescent nitrogen detector (see example C.3.b).
The solubility of a compound, at different pH's, can also be measured with the use of a cherniluminescent nitrogen detector (see Table F-3).

Row | IC50 [1] [nM] | Enzymatic activity pIC50 C.1. [2] | solubility [3] [µg/mL] | Cellular activity pIC50 C.2. [1] | Solubility C.3.b. pH = 2.3 mg/ml [3] [mg/ml] | Structure (SMILES)
1 | < 31.6 | >9 |  |  |  | COCC(/C=C/c1ccc(F)cc1)N1CCN(c2ncc(C(=O)NO)cn2)CC1 (centres unmarked) [Compound 32]
2 |  |  |  | 8.2 |  | O=C(NO)c1cnc(N2CCN([C@@H](/C=C/c3ccc(F)cc3)CO)CC2)nc1 (single isomer, unassigned) [Compound 33]
3 |  |  |  | 7.5 |  | O=C(NO)c1cnc(N2CCN([C@@H](/C=C/c3ccc(F)cc3)CO)CC2)nc1 (single isomer, unassigned) [Compound 27]
4 |  | 9.6 |  | 7.8 |  | CC(/C=C/c1ccccc1)N1CCN(c2ncc(C(=O)NO)cn2)CC1 (centres unmarked) [Compound 35]
5 |  |  |  | 7.9 |  | O=C(NO)c1cnc(N2CCN([C@H](/C=C/c3ccc(F)cc3)CO)CC2)nc1 (single isomer, unassigned) [Compound 34]
6 |  |  |  | 7.5 |  | O=C(NO)c1cnc(N2CCN([C@H](/C=C/c3ccc(F)cc3)CO)CC2)nc1 (single isomer, unassigned) [Compound 28]
7 |  | 8.3 |  | 7.2 | 3.5 | O=C(NO)c1cnc(N2CCN([C@@H](/C=C/c3ccccc3)CO)CC2)nc1 (single isomer, unassigned) [Compound 26]

Further lines, the compound ahead of its results:

Row | Structure (SMILES) | IC50 [1] [nM] | Enzymatic activity pIC50 C.1. [2] | solubility [3] [µg/mL] | Cellular activity pIC50 C.2. [1] | Solubility C.3.b. pH = 2.3 mg/ml [3] [mg/ml]
8 | O=C(NO)c1cnc(N2CCN(C(/C=C/c3ccccc3)C(=O)NCCO)CC2)nc1 (centres unmarked) [Compound 19] | 501 | 8.4 | 2600 (≈ 6.1 mM) |  | 
9 | CC(/C=C/c1ccccc1)(C(=O)N1CCOCC1)N1CCN(c2ncc(C(=O)NO)cn2)CC1 (centres unmarked) [Compound 13] | 100 | 8.8 | 3700 (≈ 7.93 mM) |  | 
10 | CN(C)CCNC(=O)C(/C=C/c1ccccc1)N1CCN(c2ncc(C(=O)NO)cn2)CC1 (centres unmarked) [Compound 18] | 100 | 8.5 | 3600 (≈ 7.94 mM) |  | 
11 | CCCCN(C)C(=O)C(C)(/C=C/c1ccc(F)cc1)N1CCN(c2ncc(C(=O)NO)cn2)CC1 (centres unmarked) [Compound 20] | 50.1 | 7.7 |  |  | 
12 | O=C(NO)c1cnc(N2CCN([C@@H](/C=C/c3ccccc3)CO)CC2)nc1 (single isomer, unassigned) [Compound 25] |  | 7.9 | 3400 (≈ 9.2 mM) | 7.6 | 
13 | CN(C)C(=O)C(C)(/C=C/c1ccc(F)cc1)N1CCN(c2ncc(C(=O)NO)cn2)CC1 (centres unmarked) [Compound 10] | 31.6 | 8.4 | 3000 (≈ 6.78 mM) |  | 
14 | Cc1ccc(/C=C/C(CO)N2CCN(c3ncc(C(=O)NO)cn3)CC2)cc1 (centres unmarked) [Compound 12] | 31.6 | 9.0 | 2100 (≈ 5.48 mM) |  | 
15 | CCN(C)C(=O)C(C)(/C=C/c1ccc(F)cc1)N1CCN(c2ncc(C(=O)NO)cn2)CC1 (centres unmarked) [Compound 14] | 39.8 | 8.5 | 2800 (≈ 6.13 mM) |  | 
16 | CCOCC(/C=C/c1ccccc1)N1CCN(c2ncc(C(=O)NO)cn2)CC1 (centres unmarked) [Compound 24] | 31.6 | 8.8 | 4000 (≈ 10.1 mM) |  | 
17 | CN1CCN(CC(/C=C/c2ccccc2)N2CCN(c3ncc(C(=O)NO)cn3)CC2)CC1 (centres unmarked) [Compound 22] | 158 | 7.9 | 4200 (≈ 9.3 mM) |  | 
18 | O=C(NO)c1cnc(N2CCN(C(/C=C/c3ccccc3)C(=O)N3CCOCC3)CC2)nc1 (centres unmarked) [Compound 17] | 200 | 8.8 | 2200 (≈ 4.86 mM) |  | 
19 | O=C(NO)c1cnc(N2CCN(C(/C=C/c3ccc(F)cc3)CO)CC2)nc1 (centres unmarked) [Compound 8] | 12.6 |  | 2900 (≈ 7.49 mM) |  | 
20 | CNC(=O)C(/C=C/c1ccccc1)N1CCN(c2ncc(C(=O)NO)cn2)CC1 (centres unmarked) [Compound 16] | 79.4 | 7.4 | 2800 (≈ 7.06 mM) |  | 
21 | O=C(NO)c1cnc(N2CCN(C(/C=C/c3ccccc3)CN3CCOCC3)CC2)nc1 (centres unmarked) [Compound 21] | 158 | 7.9 | 2100 (≈ 4.79 mM) |  | 
22 | O=C(NO)c1cnc(N2CCN(C(/C=C/c3ccccc3)Cn3ccnc3)CC2)nc1 (centres unmarked) [Compound 23] | 251 | 8.0 |  |  | 
